Experimental data taken from US20230323463A1, “COMPOSITIONS AND METHODS FOR DETECTING BCL2L14 AND ETV6 GENE FUSIONS FOR DETERMINING INCREASED DRUG RESISTANCE” (UNIVERSITY OF PITTSBURGH-OF THE COMMONWEALTH SYSTEM OF …, priority 2020, published 2023).
Entries after “also recorded” stand apart in the source; their conditions may differ.

Assays:
Type in all cases: cell-based, human
[1] = system: engineered stable BT20 cells; assay: Clonogenic assay after prolonged paclitaxel treatment, BT20; details: 5 nM paclitaxel, one month
Description: (§1) Cell proliferation and clonogenic assays. Engineered stable BT20 cells were seeded at a density of 3,000 cells/well in a 96-well plate. Cell proliferation was measured by MTS assay at different time points using CellTiter 96 AQueous One Solution Cell Proliferation Assay (Promega). For paclitaxel dose curve, stable BT20 cells were seeded at a density of 5000 cells/well in a 96-well plate and treated with vehicle or different doses of paclitaxel. Cell proliferation was measured by MTS assay after 72 hours of treatment. For clonogenic assay, stable BT20 or MCF10A cells were seeded at a density of 10,000 cells/well in a 24-well plate. After attachment to the plate, cells were treated with 0.1% DMSO (vehicle) or paclitaxel at 5 nM for BT20 cells for 6 days or 15 nM for MCF10A cells for 5 days before replacement of the chemical with fresh growth medium. The remaining colonies were growing in the plate for one month and then stained with 0.5% crystal violet in 50% ethanol and counted using ChemiDoc photography (Bio-Rad) and ImageJ.

[2] = system: engineered stable MCF10A cells; assay: Clonogenic assay after prolonged paclitaxel treatment, MCF10A; details: MCF10A cells expressing BCL2L14-ETV6 fusions vs vector or wtETV6; 15 nM paclitaxel, one month
Description: as §1

engineered BT20 cells = assay: Apoptotic biomarkers by immunoblotting after paclitaxel treatment; details: BT20 cells overexpressing BCL2L14-ETV6 fusions vs wtETV6-expressing cells; 48 hours
Description: Western blot. For immunoblot analysis, total proteins were extracted by homogenizing the cells in NP40 Lysis Buffer supplemented with complete protease inhibitor cocktail tablet (Roche), 1 mM DTT, and 1 mM PMSF. 20~50 micrograms of protein extracts were denatured in sample buffer, separated by SDS-PAGE, and transferred onto a PVDF membrane (GE). The membranes were blocked and then incubated for 1 h at room temperature or overnight at 4° C. with primary antibodies, followed by incubation with respective horseradish peroxidaseconjugated secondary antibody. The signals were then visualized by the enhanced chemiluminescence system (Clarity Western ECL Substrate and ChemiDoc imaging system, Bio-Rad).

[3] = system: engineered stable BT20 cells; assay: Paclitaxel dose curve, cell proliferation by MTS assay; details: BT20 cells expressing BCL2L14-ETV6 fusions vs vector or wtETV6; short-term (72 h) treatment, various doses
Description: as §1

## CC(=O)O[C@H]1C(=O)[C@@]2(C)[C@H]([C@H](OC(=O)c3ccccc3)[C@]3(O)C[C@H](OC(=O)[C@H](O)[C@@H](NC(=O)c4ccccc4)c4ccccc4)C(C)=C1C3(C)C)[C@]1(OC(C)=O)CO[C@@H]1C[C@@H]2O [paclitaxel]
[1]; BT20 cells expressing BCL2L14-ETV6 fusions (E2E3, E4E3, E4E2)
  clonal resistance to paclitaxel: evident clonal resistance; also recorded: clonal resistance in BT20 cells
[1]; BT20 cells expressing wtETV6 or vector control
  clonal survival after paclitaxel: almost eradicated
[2]
  clonal resistance to paclitaxel: increased clonal resistance; also recorded: clonal resistance in MCF10A cells
Engineered BT20 cells
  apoptosis biomarkers following paclitaxel treatment: did not show evident reduced apoptosis
[3]
  sensitivity to paclitaxel (cell viability): modest reduced sensitivity; also recorded: increased resistance
